Molecular target: T1, rat CB2R (Rattus norvegicus, UniProt Q9QZN9)
T1 construct: one spleen from a female SPRD rat expressing high levels of the receptor in the leukocytes; from tissue; host or cells: rat spleen (female SPRD rat; autoradiography also described with male F433 rats)
T1 sequence (Q9QZN9 1-360): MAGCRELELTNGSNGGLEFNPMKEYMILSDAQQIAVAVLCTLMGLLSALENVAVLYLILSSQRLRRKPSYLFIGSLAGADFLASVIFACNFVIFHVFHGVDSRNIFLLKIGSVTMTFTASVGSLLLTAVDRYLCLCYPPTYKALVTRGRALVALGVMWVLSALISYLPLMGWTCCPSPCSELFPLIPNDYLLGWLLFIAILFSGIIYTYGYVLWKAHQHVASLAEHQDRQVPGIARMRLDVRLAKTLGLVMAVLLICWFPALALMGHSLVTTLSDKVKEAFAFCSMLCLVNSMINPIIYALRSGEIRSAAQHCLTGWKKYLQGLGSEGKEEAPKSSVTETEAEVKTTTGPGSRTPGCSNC
Assay: Homologous competition binding of [18F]RM365 / RM365 on rat spleen homogenate
Text: To complement the indirect determination of the affinity of RM365 toward the CB2R in vitro, we performed a direct binding study with the radiofluorinated ligand using preparations of CHO cells stably transfected with the cloned human receptor and one spleen from a female SPRD rat expressing high levels of the receptor in the leukocytes.[12] The results of the homologous competition study shown in Figure 6 confirm the good affinity of [^18F]RM365 toward the human CB2R with a KD value of about 2 nM. […] Furthermore, the measurement signal obtained from the incubation of [^18F]RM365 with the homogenate of rat spleen was in the range of the values obtained for the nonspecific binding of the radioligand toward the preparation of CB2R-transfected CHO cells. We conclude that RM365 binds the rat CB2R with lower affinity than the human CB2R but expect no significant interactions of the radioligand with nonspecific binding sites.[82] […]
The nonspecific binding of the respective radioligand was determined by coincubation with CP55,940 (final concentration 10^–5 M). The normalized values of bound activity (% specific binding) were calculated and plotted vs the logarithm of the concentration of the respective test compound. […]

Kd (rat spleen homogenate, read-out: KD for the rCB2R): > 10 µM
specific binding to rat spleen homogenates, in words (spleen of a female SPRD rat): no detectable interaction
SMILES: CC1(C)Cc2ccc(C#N)cc2[C@@H]1NC(=O)c1cc2cc([18F])ccc2[nH]1 [[^18F]RM365]
